Entries after “also recorded” stand apart in the source; their conditions may differ. Marks after values point to notes of the source that are not given here.
Tests used:
[1] = system: KB tumors; assay: Inhibition of tumor growth, s.c. KB tumors; assay type: in vivo, nu/nu mice; design: key to In vivo activity (e): CR=complete response, where tumor volume, as defined herein, during the observation period was zero for all test animals in the group; details: for CR (%) / Cures (%) / PR (%): TIW
Procedure: (§1) METHOD. Inhibition of Tumor Growth in Mice. Four to seven week-old mice (Balb/c or nu/nu strains) were purchased from Harlan Sprague Dawley, Inc. (Indianapolis, Ind.). Normal rodent chow contains a high concentration of folic acid (6 mg/kg chow); accordingly, test animals were maintained on a folate-free diet (Harlan diet #TD00434) for about 1 week before tumor implantation to achieve serum folate concentrations close to the range of normal human serum, and during the Method. For tumor cell inoculation, 1×10^6 M109 cells (a syngeneic lung carcinoma) in Balb/c strain, or 1×10^6 KB cells in nu/nu strain, in 100 μL were injected in the subcutis of the dorsal medial area (right axilla). Tumors were measured in two perpendicular directions every 2-3 days using a caliper, and their volumes were calculated as 0.5×L×W^2, where L=measurement of longest axis in mm and W=measurement of axis perpendicular to L in mm.
Dosing solutions were prepared fresh each day in PBS and administered through the lateral tail vein of the mice.
Tumor implantation. KB tumor cells were grown in folate-deficient RPMI 1640 with 5% FBS at 37° C. in a 5% CO2 humidified atmosphere. KB (1×10^6 cells per animal) tumor cells were inoculated subcutaneously […] post start of the folate deficient diet. Mice were dosed after the tumors reached between 100-150 mm3.
Preparation of dosing drug solutions. Dosing solutions were prepared when dosing began by weighing appropriate amounts of each compound, reconstituting in PBS, pH 7.4, sterile filtering the drug solution through a 0.22 µm PVDF syringe filter, and freezing aliquots for each day of dosing at −20° C.
(§2) Evaluation. Tumor size was monitored and body weight measured 3 times/week. Attention was given to gross animal morphology and behavior. Euthanasia was performed if the mice lost >20% of weight or when the tumors reached a size of 1500 mm3. Euthanasia was also performed at the researcher's discretion if mice lost a lot of weight in a short duration or when mice were approaching moribund conditions. Blood samples were collected by cardiac puncture from all viable animals from selected cohorts. Heart, lungs, liver, spleen, kidney, intestines, bone, brain and muscle were obtained immediately after euthanasia. The tissues were removed and stored in 10% neutral-buffered formalin.
For example, a 50% decrease in tumor volume from the initial measurement represents a partial response.
For example, a decrease in tumor volume where the measurements in two perpendicular directions are each about 2 mm or less represents a complete response.

[2] = system: M109 (lung carcinoma) tumors; assay: Inhibition of tumor growth, s.c. M109 tumors; assay type: in vivo, nu/nu mice
Procedure: as §1
Test animals (5/group) ere injected i.v., generally three times a week TIW), for 3 weeks with varying doses, such as with 1 μmol/kg to 5 μmol/kg, of the drug delivery conjugate or with an equivalent dose volume of PBS (control), unless otherwise indicated. Dosing solutions were prepared fresh each day in PBS and administered through the lateral tail vein of the mice.

[3] = system: FR expressing cells (FR+) and cells that do not express FR (FR−); assay: Selectivity for folate receptor expressing cells; assay type: cell-based, human
[4] = system: ST040 tumors; assay: Endometrial PDX tumor model; assay type: in vivo, Balb/c nu/nu mice; details: combined with Paclitaxel 15 mg/kg
Procedure: Female Balb/c nu/nu mice were fed ad libitum with folate-deficient chow (Harlan diet #TD01013) for the duration of the experiment. Primary human Endometrial model ST040, TNBC models 5T502 and ST738 and Ovarian model ST024 fragments (2-4 mm in diameter) were inoculated subcutaneously at the right flank of each mouse. Mice were randomized into 6 experimental groups of 5 or 3 mice each and test articles were injected through the lateral tail vein under sterile conditions in a volume of 200 μL of phosphate-buffered saline (PBS).
Growth of each s.c. tumor was followed by measuring the tumor two times per week until a volume of 1200 mm^3 was reached. Tumors were measured in two perpendicular directions using Vernier calipers, and their volumes were calculated as 0.5×L×W^2, where L=measurement of longest axis in mm and W=measurement of axis perpendicular to L in mm.

[5] = Toxicity as measured by weight loss / gross animal toxicity in tumor-bearing mice; details: for Toxicity Avg. Weight Loss / Toxicity Deaths (%): TIW
Procedure: METHOD. Toxicity as Measured by Weight Loss. The percentage weight change of the test animals was determined on selected days post-tumor inoculation (PTI), and during dosing. The results were graphed.
as §2

[6] = EC1456 1.5 μmol/kg two times a week for two weeks
[7] = EC1456 3 μmol/kg once a week for two weeks
[8] = KB tumors, 0.5 μmol/kg, 3 weeks
[9] = KB tumors, 0.67 μmol/kg, 2 weeks
[10] = KB tumors, 1.0 μmol/kg, 2 weeks
[11] = KB tumors, 2.0 μmol/kg, 2 weeks

CCCC(=O)OCN(C(=O)[C@@H](NC(=O)[C@H]1CCCCN1C)C(C)CC)[C@H](C[C@@H](OC(C)=O)c1nc(C(=O)N[C@@H](Cc2ccc(O)cc2)C[C@H](C)C(=O)NNC(=O)OCCSSC[C@@H](NC(=O)[C@H](CCC(=O)NC[C@H](O)[C@@H](O)[C@H](O)[C@H](O)CO)NC(=O)[C@@H](CCC(=O)O)NC(=O)[C@H](CCC(=O)NC[C@H](O)[C@@H](O)[C@H](O)[C@H](O)CO)NC(=O)[C@@H](CCC(=O)O)NC(=O)[C@H](CCC(=O)NC[C@H](O)[C@@H](O)[C@H](O)[C@H](O)CO)NC(=O)CC[C@@H](NC(=O)c2ccc(NCc3cnc4nc(N)[nH]c(=O)c4n3)cc2)C(=O)O)C(=O)O)cs1)C(C)C (stereo in doubt) [EC1456]
CR (%) ([1]; 0.5 μmol/kg, 3 weeks): 0% | Cures (%) ([1]; 0.5 μmol/kg, 3 weeks): 0% | PR (%) ([1]; 0.5 μmol/kg, 3 weeks): 60% | CR (%) ([1]; 0.67 μmol/kg, 2 weeks): 20% | Cures (%) ([1]; 0.67 μmol/kg, 2 weeks): 0% | PR (%) ([1]; 0.67 μmol/kg, 2 weeks): 60% | CR (%) ([1]; 1.0 μmol/kg, 2 weeks): 60% | Cures (%) ([1]; 1.0 μmol/kg, 2 weeks): 60% | PR (%) ([1]; 1.0 μmol/kg, 2 weeks): 40% | CR (%) ([1]; 2.0 μmol/kg, 2 weeks): 100% | Cures (%) ([1]; 2.0 μmol/kg, 2 weeks): 100% | PR (%) ([1]; 2.0 μmol/kg, 2 weeks): 0% | efficacy of co-administration of EC1456 and carboplatin and paclitaxel ([1]; EC1456 1 μmol/kg BIW×2 + carboplatin 30 mg/kg BIW×2 + paclitaxel 10 mg/kg BIW×2): enhanced technical effect over EC1456 alone and the combination of carboplatin with paclitaxel | efficacy of co-administration of EC1456 and cisplatin ([1]; EC1456 1 μmol/kg BIW×2 + cisplatin 3 mg/kg BIW×3): enhanced technical effect over both monotherapies | efficacy of EC1456 alone compared to cisplatin ([1]; EC1456 1 μmol/kg BIW×2 vs cisplatin 3 mg/kg BIW×3): improved efficacy over cisplatin | efficacy of co-administration of EC1456 and bevacizumab ([1]; EC1456 1 μmol/kg TIW×2 + avastin 5 mg/kg BIW×2): enhanced technical effect over both monotherapies | efficacy of EC1456 alone compared to bevacizumab ([1]; EC1456 1 μmol/kg TIW×2 vs avastin 5 mg/kg BIW×2): improved efficacy over bevacizumab | cures, % of the mice ([1]; EC1456 added to the carboplatin/paclitaxel combination): 100% | PR's ([1]; EC1456 alone 1 μmol/kg twice a week for 2 weeks): 20% | efficacy of co-administration of EC1456 and topotecan ([1]; P-1606 KB tumors, EC1456 1 μmol/kg BIW×2 + topotecan 5 mg/kg BIW×2): enhanced technical effect over both monotherapies | efficacy of EC1456 alone compared to topotecan ([1]; P-1606 KB tumors, EC1456 1 μmol/kg BIW×2 vs topotecan 5 mg/kg BIW×2): improved efficacy over topotecan | efficacy of co-administration of EC1456 and docetaxel ([1]; P-1609 KB tumors, EC1456 1 μmol/kg TIW×5 + docetaxel 7 mg/kg BIW×3): enhanced technical effect over both monotherapies | efficacy of co-administration of EC1456 and topotecan ([1]; P-1609 KB tumors, EC1456 1 μmol/kg TIW×5 + topotecan 5 mg/kg TIW×5): enhanced technical effect over both monotherapies | efficacy of EC1456 alone compared to docetaxel ([1]; P-1609 KB tumors, EC1456 1 μmol/kg TIW×5 vs docetaxel 7 mg/kg BIW×3): improved efficacy over docetaxel | efficacy of EC1456 alone compared to topotecan ([1]; P-1609 KB tumors, EC1456 1 μmol/kg TIW×5 vs topotecan 5 mg/kg TIW×5): improved efficacy over topotecan | efficacy of co-administration of EC1456 and carboplatin ([1]; P-1635 KB tumors, EC1456 1 μmol/kg TIW + carboplatin 50 mg/kg TIW): enhanced technical effect over both monotherapies | efficacy of EC1456 alone compared to carboplatin ([1]; P-1635 KB tumors, EC1456 1 μmol/kg TIW×2 vs carboplatin 50 mg/kg TIW): improved efficacy over carboplatin | specific activity mediated by the folate receptor ([1]; co-dosed with excess comparator compound EC0923 (50 or 100 μmol/kg)): competable | anti-tumor activity / response ([1]; human KB tumors in mice, conjugated vs unconjugated drugs): dose responsive anti-tumor activity | complete response, test animals ([1]; intravenously 1 μmol/kg TIW, 2 wk): 4/4 | In vivo activity (e) ([1]; subcutaneous KB tumor in nu/nu mice): CR | efficacy of co-administration of EC1456 and cisplatin ([2]; EC1456 2 μmol/kg TIW×2 + cisplatin 3 mg/kg BIW×2): enhanced technical effect over both monotherapies | efficacy of EC1456 alone compared to cisplatin ([2]; EC1456 2 μmol/kg TIW×2 vs cisplatin 3 mg/kg BIW×2): improved efficacy over cisplatin | binding to low and high FR expressing cells (FR+) ([3]; FR+ cells): high competable binding | binding to cells that do not express FR (FR−) ([3]; FR− cells): did not show binding | animal exhibiting cure [4, 6]: 1 animal | animals exhibiting PRs [4, 6]: 3 animals | animals exhibiting PR's [4, 7]: 2 animals | animals exhibiting stable disease [4, 7]: 3 animals | whole animal toxicity as determined by animal body weight ([5]; KB tumors in nu/nu mice, 1 μmol/kg TIW, 2 weeks): did not result in any observable whole animal toxicity; also recorded: did not show any evidence of whole animal toxicity | gross animal toxicity ([5]; KB tumors, carboplatin/paclitaxel study, EC1456 alone 1 μmol/kg BIW×2): Gross animal toxicity was not observed | toxicity ([5]; KB tumors, carboplatin/paclitaxel study, carboplatin in combination with EC1456): Mild toxicity | Toxicity Avg. Weight Loss [5, 8]: <5%* | Toxicity Deaths (%) [5, 8]: 0% | Toxicity Avg. Weight Loss [5, 9]: <2% | Toxicity Deaths (%) [5, 9]: 0% | Toxicity Avg. Weight Loss [5, 10]: <1.5% | Toxicity Deaths (%) [5, 10]: 0% | Toxicity Avg. Weight Loss [5, 11]: <3% | Toxicity Deaths (%) [5, 11]: 0% | gross animal toxicity ([5]; KB tumors, EC1456 alone 1 μmol/kg BIW×2): Gross animal toxicity was not observed | gross animal toxicity ([5]; KB tumors, EC1456 alone 1 μmol/kg TIW×5): Gross animal toxicity was not observed | toxicity ([5]; KB tumors, cisplatin 3 mg/kg BIW×3 in combination with EC1456): Mild toxicity | toxicity ([5]; KB tumors, docetaxel 7 mg/kg BIW×3 in combination with EC1456): Mild toxicity | weight loss / host animal toxicity ([5]; KB-CR2000 tumors, EC1456 2 μmol/kg TIW 2 weeks): did not exhibit significant host animal toxicity; also recorded: did not cause any weight loss | gross animal toxicity ([5]; KB-DR150 tumors, EC1456 alone 2 μmol/kg TIW×2): Gross animal toxicity was not observed | toxicity ([5]; KB-DR150 tumors, doxorubicin in combination with EC1456): Mild toxicity | gross animal toxicity ([5]; M109 tumors, EC1456 alone 2 μmol/kg TIW×2): Gross animal toxicity was not observed | toxicity ([5]; M109 tumors, cisplatin in combination with EC1456): Mild toxicity | weight loss / gross whole animal toxicity (% weight change) ([5]; MDA-MB-231 tumors, 2 μmol/kg i.v. TIW 2 weeks): did not cause gross whole animal toxicity; also recorded: not accompanied by significant weight loss | gross animal toxicity ([5]; P-1635 KB tumors, EC1456 alone 1 μmol/kg TIW×2): Gross animal toxicity was not observed | toxicity ([5]; P-1635 KB tumors, carboplatin 50 mg/kg TIW in combination with EC1456): Mild toxicity
